In PubChem BioAssay (NCI):
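Following 48 hours of exposure in 96-well plates, responses at five concentrations were used to interpolate endpoints linearly. GI50: concentration for 50% inhibition of growth. The concentration for full growth arrest is given as TGI.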

How the values were obtained:
Test in all cases: DTP human tumour cell line panel, 48 h
OVCAR-5 ovarian = system: OVCAR-5 ovarian
SNB-19 CNS = system: SNB-19 CNS
U251 CNS = system: U251 CNS
OVCAR-4 ovarian = system: OVCAR-4 ovarian
MDA-MB-231 breast = system: MDA-MB-231 breast
CAKI-1 renal = system: CAKI-1 renal
SN12C renal = system: SN12C renal
HCT-15 colon = system: HCT-15 colon
SNB-75 CNS = system: SNB-75 CNS

CCCNC(=O)c1cc(OC)c(OC)cc1NC(=O)C12CC3CC(CC(C3)C1)C2
TGI (OVCAR-5 ovarian): 36.6 µM | TGI (SNB-19 CNS): 30 µM | TGI (U251 CNS): 30.7 µM | TGI (OVCAR-4 ovarian): 33.6 µM | TGI (MDA-MB-231 breast): 31.4 µM | TGI (CAKI-1 renal): 41.3 µM | TGI (SN12C renal): 29.6 µM | TGI (HCT-15 colon): 32.7 µM

CC(C)=CC(=O)c1[nH]c2ccccc2c1CC(=O)NCCc1cnc[nH]1
TGI (OVCAR-5 ovarian): > 100 µM | TGI (SNB-19 CNS): > 100 µM | TGI (U251 CNS): > 100 µM | TGI (OVCAR-4 ovarian): > 100 µM | TGI (SNB-75 CNS): > 100 µM | TGI (MDA-MB-231 breast): > 100 µM | TGI (CAKI-1 renal): > 100 µM | TGI (SN12C renal): > 100 µM | TGI (HCT-15 colon): > 100 µM

O=c1[nH]nc(-c2cccc([N+](=O)[O-])c2)[nH]1
TGI (OVCAR-5 ovarian): > 100 µM | TGI (SNB-19 CNS): > 100 µM | TGI (U251 CNS): > 100 µM | TGI (OVCAR-4 ovarian): > 100 µM | TGI (SNB-75 CNS): > 100 µM | TGI (CAKI-1 renal): > 100 µM | TGI (SN12C renal): > 100 µM | TGI (HCT-15 colon): > 100 µM

COc1ccc2nc(-c3ccc(N)cc3)sc2c1
TGI (OVCAR-5 ovarian): > 100 µM | TGI (SNB-19 CNS): > 100 µM | TGI (U251 CNS): > 100 µM | TGI (OVCAR-4 ovarian): > 100 µM | TGI (SNB-75 CNS): > 100 µM | TGI (MDA-MB-231 breast): > 100 µM | TGI (CAKI-1 renal): > 100 µM | TGI (HCT-15 colon): > 100 µM

COC1=CC(=O)[C@@]2(C)C(C)[C@H](c3ccccc3)[C@H]2C1=O (stereo not given in full)
TGI (OVCAR-5 ovarian): > 100 µM | TGI (SNB-19 CNS): > 100 µM | TGI (U251 CNS): > 100 µM | TGI (OVCAR-4 ovarian): > 100 µM | TGI (SNB-75 CNS): > 100 µM | TGI (CAKI-1 renal): > 100 µM | TGI (HCT-15 colon): > 100 µM

c1ccc(-c2cc(-c3ccccc3)nc(-c3ccncc3)c2)cc1
TGI (OVCAR-5 ovarian): > 100 µM | TGI (SNB-19 CNS): > 100 µM | TGI (U251 CNS): > 100 µM | TGI (OVCAR-4 ovarian): > 100 µM | TGI (MDA-MB-231 breast): > 100 µM | TGI (CAKI-1 renal): > 100 µM | TGI (SN12C renal): > 100 µM | TGI (HCT-15 colon): > 100 µM

CCOC(=O)c1c(NS(=O)(=O)c2ccccc2)sc2c1CCCC2
TGI (OVCAR-5 ovarian): > 100 µM | TGI (SNB-19 CNS): > 100 µM | TGI (SNB-75 CNS): > 100 µM | TGI (MDA-MB-231 breast): > 100 µM | TGI (CAKI-1 renal): > 100 µM | TGI (SN12C renal): > 100 µM | TGI (HCT-15 colon): > 100 µM

CCC(CCCC[C@H]1CC[C@@H]2CC(=O)C[C@H]12)OC (stereo not given in full)
TGI (OVCAR-5 ovarian): > 100 µM | TGI (SNB-19 CNS): > 100 µM | TGI (U251 CNS): > 100 µM | TGI (OVCAR-4 ovarian): > 100 µM | TGI (SNB-75 CNS): > 100 µM | TGI (MDA-MB-231 breast): > 100 µM | TGI (CAKI-1 renal): > 100 µM | TGI (SN12C renal): > 100 µM | TGI (HCT-15 colon): > 100 µM

Clc1ccc(Cc2nc3cc4ccccc4cc3[nH]2)cc1Cl
TGI (OVCAR-5 ovarian): > 100 µM | TGI (SNB-19 CNS): 46 µM | TGI (U251 CNS): 78.3 µM | TGI (OVCAR-4 ovarian): 36.8 µM | TGI (SNB-75 CNS): 44.5 µM | TGI (MDA-MB-231 breast): 38 µM | TGI (CAKI-1 renal): 43.5 µM | TGI (SN12C renal): 52.2 µM | TGI (HCT-15 colon): > 100 µM

Cc1cc2nc3c(N)nn(CCCN(C)C)c3nc2cc1C
TGI (OVCAR-5 ovarian): > 100 µM | TGI (SNB-19 CNS): > 100 µM | TGI (U251 CNS): > 100 µM | TGI (OVCAR-4 ovarian): > 100 µM | TGI (SNB-75 CNS): > 100 µM | TGI (MDA-MB-231 breast): > 100 µM | TGI (CAKI-1 renal): > 100 µM | TGI (SN12C renal): > 100 µM | TGI (HCT-15 colon): > 100 µM

COc1ccc(C(CC(=O)c2cccs2)C(=O)c2ccc3c(c2)OCO3)cc1 (stereo not given)
TGI (U251 CNS): > 100 µM | TGI (OVCAR-4 ovarian): > 100 µM | TGI (SNB-75 CNS): > 100 µM | TGI (MDA-MB-231 breast): > 100 µM | TGI (CAKI-1 renal): > 100 µM | TGI (SN12C renal): > 100 µM | TGI (HCT-15 colon): > 100 µM

CC(C)C1OC(=O)C(Cc2ccccc2)N(C)C(=O)C(C(C)C)OC(=O)C(Cc2ccccc2)N(C)C(=O)C(C(C)C)OC(=O)C(Cc2ccccc2)N(C)C1=O (stereo not given)
TGI (OVCAR-5 ovarian): 2.44 µM | TGI (SNB-19 CNS): 2.18 µM | TGI (U251 CNS): 1.77 µM | TGI (OVCAR-4 ovarian): 1.18 µM | TGI (SNB-75 CNS): 2.99 µM | TGI (MDA-MB-231 breast): 2.67 µM | TGI (CAKI-1 renal): 2.46 µM | TGI (SN12C renal): 2.14 µM | TGI (HCT-15 colon): 2.61 µM

O=[N+]([O-])c1ccc(CSC2=C(c3ccc(Cl)cc3)S/C(=C3\SC(SCc4ccc([N+](=O)[O-])cc4)=C(c4ccc(Cl)cc4)S3)S2)cc1
TGI (OVCAR-5 ovarian): > 100 µM | TGI (SNB-19 CNS): > 100 µM | TGI (U251 CNS): > 100 µM | TGI (OVCAR-4 ovarian): > 100 µM | TGI (MDA-MB-231 breast): > 100 µM | TGI (CAKI-1 renal): > 100 µM | TGI (SN12C renal): > 100 µM | TGI (HCT-15 colon): > 100 µM

CCC(C)C(NC(=O)c1cccc2c(=O)c3ccccc3[nH]c12)C(=O)O (stereo not given)
TGI (OVCAR-5 ovarian): > 100 µM | TGI (SNB-19 CNS): > 100 µM | TGI (U251 CNS): > 100 µM | TGI (OVCAR-4 ovarian): > 100 µM | TGI (SNB-75 CNS): > 100 µM | TGI (MDA-MB-231 breast): > 100 µM | TGI (SN12C renal): > 100 µM | TGI (HCT-15 colon): > 100 µM

C=CC[PH+](c1ccccc1)c1ccccc1.C=CC[PH+](c1ccccc1)c1ccccc1.[Pt+2].[S-]c1nc2ccccc2[nH]1.[S-]c1nc2ccccc2[nH]1
GI50 (OVCAR-5 ovarian): 2140 nM | TGI (OVCAR-5 ovarian): 5.42 µM | GI50 (OVCAR-4 ovarian): 2560 nM | TGI (OVCAR-4 ovarian): > 100 µM | GI50 (SNB-75 CNS): 1200 nM | TGI (SNB-75 CNS): 3.89 µM | GI50 (CAKI-1 renal): 2540 nM | TGI (CAKI-1 renal): 12.8 µM | GI50 (HCT-15 colon): 6.34 µM | TGI (HCT-15 colon): > 100 µM

CN1N=C(c2ccncc2)OC1c1ccc(C(F)(F)F)cc1 (stereo not given)
TGI (OVCAR-5 ovarian): > 100 µM | TGI (SNB-19 CNS): > 100 µM | TGI (U251 CNS): > 100 µM | TGI (OVCAR-4 ovarian): > 100 µM | TGI (SNB-75 CNS): 87.8 µM | TGI (MDA-MB-231 breast): > 100 µM | TGI (SN12C renal): > 100 µM | TGI (HCT-15 colon): > 100 µM

C=CCSC1=N/C(=C\c2ccc(C)cc2)C(=O)N1CC=C
TGI (OVCAR-5 ovarian): > 100 µM | TGI (SNB-19 CNS): > 100 µM | TGI (U251 CNS): 57.1 µM | TGI (OVCAR-4 ovarian): > 100 µM | TGI (MDA-MB-231 breast): > 100 µM | TGI (CAKI-1 renal): > 100 µM | TGI (SN12C renal): 28.2 µM | TGI (HCT-15 colon): > 100 µM

CC[C@@]1(O)C(=O)OCc2c1cc1n(c2=O)Cc2c-1nc1ccc(N)cc1c2CC[Si](C)(C)C
TGI (OVCAR-5 ovarian): 1 µM | TGI (SNB-19 CNS): 11.1 µM | TGI (U251 CNS): 0.543 µM | TGI (OVCAR-4 ovarian): 5.94 µM | TGI (MDA-MB-231 breast): 0.428 µM | TGI (SN12C renal): < 0.01 µM | TGI (HCT-15 colon): 14.2 µM

COc1cc2c(cc1C)NC(=O)/C2=C/c1c(Cl)[nH]c2ccccc12
TGI (OVCAR-5 ovarian): 24.4 µM | TGI (SNB-19 CNS): 19.2 µM | TGI (U251 CNS): 16.9 µM | TGI (SNB-75 CNS): 21.7 µM | TGI (MDA-MB-231 breast): 16.9 µM | TGI (CAKI-1 renal): 24.7 µM | TGI (SN12C renal): 16.7 µM | TGI (HCT-15 colon): 14.6 µM

NS(=O)(=O)c1ccc(Nc2c3ccccc3nc3c(C(=O)NC(CO)(CO)CO)cccc23)cc1
TGI (OVCAR-5 ovarian): 0.709 µM | TGI (SNB-19 CNS): 0.783 µM | TGI (U251 CNS): 0.457 µM | TGI (OVCAR-4 ovarian): 0.193 µM | TGI (MDA-MB-231 breast): 0.434 µM | TGI (CAKI-1 renal): 0.525 µM | TGI (SN12C renal): 0.695 µM | TGI (HCT-15 colon): 0.948 µM

O=C1c2ccccc2CC12Cc1ccc3c(c1C2=O)CCCC3 (stereo not given)
TGI (OVCAR-5 ovarian): > 100 µM | TGI (SNB-19 CNS): > 100 µM | TGI (U251 CNS): > 100 µM | TGI (OVCAR-4 ovarian): > 100 µM | TGI (SNB-75 CNS): 70.5 µM | TGI (MDA-MB-231 breast): 86 µM | TGI (SN12C renal): > 100 µM | TGI (HCT-15 colon): > 100 µM

CN1C/C(=C\c2ccccc2)C2=NN(C(N)=S)[C@H](c3ccccc3)[C@@H]2C1
TGI (OVCAR-5 ovarian): > 100 µM | TGI (SNB-19 CNS): > 100 µM | TGI (U251 CNS): > 100 µM | TGI (OVCAR-4 ovarian): > 100 µM | TGI (SN12C renal): > 100 µM | TGI (HCT-15 colon): > 100 µM

CCOC(=O)c1c(N2CCN(C)CC2)[nH]c(=O)c(C(c2c(Cl)cccc2Cl)c2c(O)c(C(=O)OCC)c(N3CCN(C)CC3)[nH]c2=O)c1O
TGI (OVCAR-5 ovarian): > 100 µM | TGI (SNB-19 CNS): 37.2 µM | TGI (U251 CNS): 50 µM | TGI (OVCAR-4 ovarian): 38.4 µM | TGI (MDA-MB-231 breast): 55.1 µM | TGI (CAKI-1 renal): 52.7 µM | TGI (SN12C renal): 48 µM | TGI (HCT-15 colon): 97.7 µM

O=C1CC2(CCN(Cc3ccccc3)CC2)C(=O)N1N1CCCCC1
TGI (OVCAR-5 ovarian): > 100 µM | TGI (SNB-19 CNS): > 100 µM | TGI (U251 CNS): > 100 µM | TGI (SNB-75 CNS): > 100 µM | TGI (MDA-MB-231 breast): > 100 µM | TGI (CAKI-1 renal): > 100 µM | TGI (SN12C renal): > 100 µM | TGI (HCT-15 colon): > 100 µM

NC1=Nc2ncccc2C(=O)NN1
TGI (OVCAR-5 ovarian): > 10 µM | TGI (SNB-19 CNS): > 10 µM | TGI (U251 CNS): > 10 µM | TGI (SNB-75 CNS): > 10 µM | TGI (MDA-MB-231 breast): > 10 µM | TGI (SN12C renal): > 10 µM | TGI (HCT-15 colon): > 10 µM
